Assay results published in ChEMBL document CHEMBL1201862, “PubChem BioAssay data set” (2004).
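Compound exposure: 48 hours, 5 concentrations, 96-well plates. GI50 marks 50% less growth.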 Calls of active or inactive are those of the source. Cut-off read from the data, not from the text of the source: active = GI50 up to about 1.1 µM and inactive = higher.

Assays:
Assay in all cases: NCI tumour cell line growth inhibition, 48 h
CAKI-1 = system: CAKI-1
COLO 205 = system: COLO 205
EKVX = system: EKVX
HCC 2998 = system: HCC 2998
HCT-116 = system: HCT-116
HCT-15 = system: HCT-15
HT-29 = system: HT-29
K562 = system: K562
MOLT-4 = system: MOLT-4
Malme-3M = system: Malme-3M
NCI-H460 = system: NCI-H460
OVCAR-3 = system: OVCAR-3
OVCAR-4 = system: OVCAR-4
SF-539 = system: SF-539
SK-MEL-28 = system: SK-MEL-28
SK-MEL-5 = system: SK-MEL-5
SK-OV-3 = system: SK-OV-3
SNB-19 = system: SNB-19
SW-620 = system: SW-620
UACC-257 = system: UACC-257

SMILES	GI50 (CAKI-1)	GI50 (COLO 205)	GI50 (EKVX)	GI50 (HCC 2998)	GI50 (HCT-116)	GI50 (HCT-15) [µM]	GI50 (HT-29)	GI50 (K562)	GI50 (MOLT-4)	GI50 (Malme-3M)	GI50 (NCI-H460)	GI50 (OVCAR-3)	GI50 (OVCAR-4)	GI50 (SF-539)	GI50 (SK-MEL-28)	GI50 (SK-MEL-5)	GI50 (SK-OV-3)	GI50 (SNB-19)	GI50 (SW-620)	GI50 (UACC-257)
COC(=O)C1=CC[C@@H]2C(C(=O)O)=CO[C@@H](OC3OC(CO)C(O)C(O)C3O)[C@H]12 (stereo not given in full)	> 300 µM (inactive)	> 300 µM (inactive)	> 300 µM (inactive)	> 110 µM (inactive)	> 300 µM (inactive)	> 300	> 300 µM (inactive)	> 300 µM (inactive)	> 300 µM (inactive)	> 263 µM (inactive)	> 300 µM (inactive)	> 300 µM (inactive)	> 300 µM (inactive)	> 300 µM (inactive)	> 300 µM (inactive)	> 151 µM (inactive)	> 300 µM (inactive)	> 300 µM (inactive)	> 300 µM (inactive)	> 300 µM (inactive)
O=C(O)c1cccc2cccc(-c3c4ccc(=O)cc-4oc4cc(O)ccc34)c12	> 100 µM (inactive)	98.6 µM (inactive)	> 100 µM (inactive)	> 100 µM (inactive)	> 100 µM (inactive)	> 100	> 100 µM (inactive)	31 µM (inactive)	27.3 µM (inactive)	> 100 µM (inactive)	> 100 µM (inactive)	21.3 µM (inactive)	> 100 µM (inactive)	> 100 µM (inactive)	> 100 µM (inactive)	> 100 µM (inactive)	33.4 µM (inactive)	> 100 µM (inactive)	49.7 µM (inactive)	> 100 µM (inactive)
CCC1OC(=O)C(C)C(OC2CC(C)(O)C(O)C(C)O2)C(C)C(O)C(C)(O)CC(C)C(=O)C(C)C(O)C1C (stereo not given)	> 300 µM (inactive)	> 300 µM (inactive)	> 300 µM (inactive)	> 300 µM (inactive)	> 300 µM (inactive)	> 300	> 300 µM (inactive)	> 300 µM (inactive)	> 300 µM (inactive)	> 300 µM (inactive)	> 300 µM (inactive)	> 300 µM (inactive)	> 300 µM (inactive)	> 300 µM (inactive)	> 300 µM (inactive)	> 300 µM (inactive)	> 300 µM (inactive)	> 300 µM (inactive)	> 300 µM (inactive)	> 300 µM (inactive)
C=C1C(=O)OC2CC(C)C3C4OC4C(O)C3(C)C(O)C12 (stereo not given)	22.8 µM (inactive)	16.3 µM (inactive)	20 µM (inactive)	30.8 µM (inactive)	15.6 µM (inactive)	22.8	27.5 µM (inactive)	20.6 µM (inactive)	11.9 µM (inactive)	20.9 µM (inactive)	19 µM (inactive)	25.9 µM (inactive)	26.5 µM (inactive)	17.9 µM (inactive)	23.6 µM (inactive)	38.5 µM (inactive)	44.9 µM (inactive)	44.7 µM (inactive)	16.5 µM (inactive)	37.8 µM (inactive)
